The subject of data set [1] is Bacillus subtilis ATCC 10707. Briefly: Antibacterial activity, agar dilution method (pH 7.0). Format: cell-based. The conditions noted are these: ATCC10707, read-out: minimum growth inhibition concentration (MIC). An excerpt: (§1) The antibacterial activities of UCT4-B on four bacteria (i.e., Staphylococcus aureus, Enterococcus faecium, Bacillus subtilis, Klebsiella pneumoniae) were examined by the agar dilution method (pH 7.0)[refer to "Biseibutsu Jikken Manyuaru (Manual of The Microbial Experiments)" 80, Kodansha (1986)].
(§2) The results are shown in terms of the minimum growth inhibition concentration (MIC) in Table 2.
(In general: In agar dilution the substance is mixed into plates at graded concentrations.)

Data set [2] concerns Enterococcus faecium ATCC 10541. Described as above. The data set is classed as cell-based. Conditions: ATCC10541, read-out: minimum growth inhibition concentration (MIC).
From the text: as §1, §2

The subject of data set [3] is Klebsiella pneumoniae ATCC 10031. The description is as above. Conditions: ATCC10031, read-out: minimum growth inhibition concentration (MIC). Format: cell-based.
From the text: as §1, §2

Data set [4] relates to Staphylococcus aureus ATCC 6538P. The data set is described as above. Format: cell-based. The conditions noted are these: ATCC6538P, read-out: minimum growth inhibition concentration (MIC).
From the text: as §1, §2

Data set [5] in a line: Acute toxicity, single intravenous administration, 14 days survival. The conditions noted are these: mouse, in vivo, ddy mice, single i.v., Behrens-Karber method. As to the method: UCT4-B was intravenously administered once to ddy mice weighing about 20 g (each group having 5 animals) and then the survival state of the animals was monitored for 14 days following the administration. Then LD50 of the compound was calculated based on the mortality of mice in each group in accordance with the Behrens-Karber method.

The test system of data set [6] is lymphocytic leukemia p338 tumor cells. Put plainly: Effect on lymphocytic leukemia (life-prolonging effect). Format: in vivo, CDF1 male mice. Conditions: i.p., 24 hours after i.p. transplantation. As to the method: 1×10^6 lymphocytic leukemia p338 tumor cells were intraperitoneally transplanted into CDF1 male mice weighing 22 g (each group having 5 animals). 24 hours after the trans- plantation, 0.2 ml of a solution of UCT4-B in physiological saline or 0.2 ml of physiological saline (the control group) was intraperitoneally administered to the animals.
The results of the test are expressed in terms of T/C (%) calculated by dividing the average survival days of each test group (T) with that of the control group (C).

As usually defined, the LD50 is the dose expected to kill half of the subjects tested. The low end stands for a more toxic substance, the high end for a less toxic substance.

SMILES strings stand for the structures. ≈ marks a conversion by molar mass, not a printed value. Where only a bound is given, the exact number is not on record here.

Take `CC1C(O)C(=O)C2(C)C(CO)=CCCC2C1(C)CC(O)C1(C(=O)C=O)CO1` (stereo not shown) [UCT4-B]: the MIC was 8.3 µg/mL (≈ 21.8 µM) in data set [1], 4.1 µg/mL (≈ 10.8 µM) in data set [2], 2.1 µg/mL (≈ 5.52 µM) in data set [3] and 4.1 µg/mL (≈ 10.8 µM) in data set [4]. Further, in data set [5], the LD50 at 336 h is ≥ 50 mg/kg. For the same compound, the “Life-prolonging effect (T/C %)” value in data set [6] (3 mg/kg) is 124%; in data set [6] (6 mg/kg) it was 131%; in data set [6] (12 mg/kg) it was 127%; in data set [6] (25 mg/kg), 137%; in data set [6] (50 mg/kg), 141%. Also, the Solubility result in “Solubility” (acetonitrile) was “soluble”; in “Solubility” (chloroform) it was “highly soluble”; in “Solubility” (ethyl acetate), “highly soluble”; in the data set “Solubility” (hexane), “insoluble”; in the data set “Solubility” (methanol) it was “highly soluble”; in “Solubility” (water), “soluble”.

(Values after US5151352A, “Process for producing diterpene compounds” (Kyowa Hakko Kogyo Co., Ltd., priority 1990, dated 1992).)
